The results in this text go back to PubChem BioAssay AID212 (DTP/NCI, 2004).

Several values for one entry are separate records, joined by “and”; a condition that tells them apart may be missing. Equal values may be shown once. Records with an inconclusive call do not appear.

The test system of the assay is BDF1 mice, colon carcinoma 38 sc, T/C %. As to the kind of experiment: NCI In Vivo Anticancer Drug Screen. Data for tumor model Colon Carcinoma 38 (subcutaneous) in B6D2F1 (BDF1) mice. Conditions: endpoint: median tumor weight (est.), higher = larger tumour. Here is the method:
The antitumor activity of compounds was measured in mice bearing transplantable tumors. Survival or tumor size were measured and the results are expressed as the measurement made in the treated group (T) divided by the measurement made in the vehicle treated control group (C). The tumor model used in this assay is Colon Carcinoma 38 (subcutaneous) in B6D2F1 (BDF1) mice

Where [1] appears, read: dose: 12.5 mg/kg/injection, schedule: Q07DX002 (ip), vehicle: saline.
[2] abbreviates: dose: 25.0 mg/kg/injection, schedule: Q07DX002 (ip), vehicle: saline.
Setting [3] is: dose: 100.0 mg/kg/injection, schedule: Q07DX002 (ip), vehicle: saline.
The mark [4] stands for this setting: dose: 5.0 mg/kg/injection, schedule: Q07DX002 (ip), vehicle: saline.
Where [5] appears, read: dose: 10.0 mg/kg/injection, schedule: Q07DX002 (ip), vehicle: saline.
The mark [6] stands for this setting: dose: 100.0 mg/kg/injection, schedule: Q07DX002 (ip), vehicle: saline with Tween-80.
Where [7] appears, read: dose: 200.0 mg/kg/injection, schedule: Q07DX002 (ip), vehicle: saline with Tween-80.
[8] abbreviates: dose: 100.0 mg/kg/injection, schedule: Q07DX002 (ip), vehicle: Klucel (hydroxypropylcellulose) (HPC).
Where [9] appears, read: dose: 200.0 mg/kg/injection, schedule: Q07DX002 (ip), vehicle: Klucel (hydroxypropylcellulose) (HPC).
The mark [10] stands for this setting: dose: 400.0 mg/kg/injection, schedule: Q07DX002 (ip), vehicle: Klucel (hydroxypropylcellulose) (HPC).
Setting [11] is: dose: 800.0 mg/kg/injection, schedule: Q07DX002 (ip), vehicle: Klucel (hydroxypropylcellulose) (HPC).

As to `CCC1CC2CN(CCc3c([nH]c4ccccc34)C(C(=O)OC)(c3cc4c(cc3OC)N(C)C3C(O)(C(=O)OC)C(OC(C)=O)C5(CC)C=CCN6CCC43C65)C2)C1` (configuration not stated), the T/C runs as follows: (dose: 0.25 mg/kg/injection, schedule: Q07DX002 (ip), vehicle: suspension in saline) 162 % of control; (dose: 0.5 mg/kg/injection, schedule: Q07DX002 (ip), vehicle: suspension in saline) 158 % of control; (dose: 1.0 mg/kg/injection, schedule: Q07DX002 (ip), vehicle: suspension in saline) 167 % of control.

In the case of `CC(=O)OCC1OC(OC(C)=O)C(NC(=O)N(CCCl)N=O)C(OC(C)=O)C1OC(C)=O` (configuration not stated), the T/C (dose: 0.75 mg/kg/injection, schedule: Q07DX002 (ip), vehicle: Klucel (hydroxypropylcellulose) (HPC)) is 100 % of control; the T/C (dose: 1.5 mg/kg/injection, schedule: Q07DX002 (ip), vehicle: Klucel (hydroxypropylcellulose) (HPC)) was 82 % of control and 96 % of control; the T/C (dose: 3.0 mg/kg/injection, schedule: Q07DX002 (ip), vehicle: Klucel (hydroxypropylcellulose) (HPC)) was 64 % of control.

Regarding `C=C1C(=O)OC2/C=C(\C)CC(O)/C=C(/CO)CC(OC(=O)/C(C)=C/C)C12` (configuration not stated), the T/C was 223 % of control (dose: 7.5 mg/kg/injection, schedule: Q07DX002 (ip), vehicle: saline + alcohol); 168 % of control (dose: 30.0 mg/kg/injection, schedule: Q07DX002 (ip), vehicle: saline + alcohol); 441 % of control (dose: 60.0 mg/kg/injection, schedule: Q07DX002 (ip), vehicle: saline + alcohol).

`OC(CCl)CN1CC[N+]2(CC1)CC[N+]1(CCN(CC(O)CCl)CC1)CC2` (configuration not stated): the T/C under setting [1] is 73 % of control; the T/C (dose: 12.5 mg/kg/injection, schedule: Q07DX003 (ip), vehicle: saline) is 90 % of control; the T/C under setting [2] was 124 % of control; the T/C (dose: 25.0 mg/kg/injection, schedule: Q07DX003 (ip), vehicle: saline) was 91 % of control; the T/C (dose: 50.0 mg/kg/injection, schedule: Q07DX002 (ip), vehicle: saline) was 90 % of control and 99 % of control; the T/C (dose: 50.0 mg/kg/injection, schedule: Q07DX003 (ip), vehicle: saline) is 76 % of control. Moreover, the T/C by setting is: under setting [3], 60 % of control; (dose: 100.0 mg/kg/injection, schedule: Q07DX003 (ip), vehicle: saline) 57 % of control; (dose: 200.0 mg/kg/injection, schedule: Q07DX003 (ip), vehicle: saline) 54 % of control; (dose: 400.0 mg/kg/injection, schedule: Q07DX003 (ip), vehicle: saline) 44 % of control; (dose: 800.0 mg/kg/injection, schedule: Q07DX002 (ip), vehicle: saline) 30 % of control.

Turning to `O=C(O)CC(NC(=O)CP(=O)(O)O)C(=O)O.[NH-]C1CCCCC1[NH-].[Pt+2]` (configuration not stated), the T/C was 103 % of control (dose: 1.56 mg/kg/injection, schedule: Q07DX002 (ip), vehicle: dextrose); 77 % of control and 87 % of control (dose: 3.12 mg/kg/injection, schedule: Q07DX002 (ip), vehicle: dextrose); 85 % of control and 90 % of control (dose: 6.25 mg/kg/injection, schedule: Q07DX002 (ip), vehicle: dextrose); 64 % of control and 65 % of control (dose: 12.5 mg/kg/injection, schedule: Q07DX002 (ip), vehicle: dextrose); 44 % of control and 54 % of control (dose: 25.0 mg/kg/injection, schedule: Q07DX002 (ip), vehicle: dextrose); 14 % of control (dose: 50.0 mg/kg/injection, schedule: Q07DX002 (ip), vehicle: dextrose).

As to `C[PH+](C)C.C[PH+](C)C.[Au]`, the T/C runs as follows: (dose: 1.25 mg/kg/injection, schedule: Q07DX002 (ip), vehicle: saline) 99 % of control; (dose: 2.5 mg/kg/injection, schedule: Q07DX002 (ip), vehicle: saline) 84 % of control; under setting [4], 87 % of control; under setting [5], 65 % of control.

Consider `CC1=C(C)C(=O)O[C@@H]([C@](C)(O)[C@]2(O)CC[C@@]3(O)[C@@H]4C[C@H]5O[C@]56CC=CC(=O)[C@]6(C)[C@H]4CC[C@]23C)C1`, for which the T/C under setting [1] is 110 % of control; the T/C under setting [2] was 96 % of control; the T/C (dose: 28.1 mg/kg/injection, schedule: Q07DX002 (ip), vehicle: saline) is 162 % of control; the T/C (dose: 56.2 mg/kg/injection, schedule: Q07DX002 (ip), vehicle: saline) is 90 % of control; the T/C under setting [3] is 117 % of control; the T/C (dose: 112.5 mg/kg/injection, schedule: Q07DX002 (ip), vehicle: saline) was 160 % of control. Besides, the T/C was 83 % of control (dose: 200.0 mg/kg/injection, schedule: Q07DX002 (ip), vehicle: saline) and 70 % of control (dose: 225.0 mg/kg/injection, schedule: Q07DX002 (ip), vehicle: saline).

Turning to `CNC(=O)O/N=C(\CN=[N+]=[N-])C(C)(C)C`, the T/C (dose: 1.0 mg/kg/injection, schedule: Q07DX002 (ip), vehicle: saline) was 103 % of control.

With `CCOC(=O)C(CC(C)C)NC(=O)C(N)Cc1ccc(N(CCCl)CCCl)cc1` (configuration not stated), the T/C reads like this: under setting [4], 43 % of control; (dose: 5.0 mg/kg/injection, schedule: Q07DX002 (ip), vehicle: water) 86 % of control; under setting [5], 65 % of control; (dose: 10.0 mg/kg/injection, schedule: Q07DX002 (ip), vehicle: water) 71 % of control; (dose: 20.0 mg/kg/injection, schedule: Q07DX002 (ip), vehicle: saline) 31 % of control; (dose: 20.0 mg/kg/injection, schedule: Q07DX002 (ip), vehicle: water) 36 % of control.

In the case of `ClCC[Se](Cl)(Cl)c1ccccc1`, the T/C by setting is: (dose: 1.56 mg/kg/injection, schedule: Q07DX002 (ip), vehicle: saline) 84 % of control; (dose: 1.56 mg/kg/injection, schedule: Q07DX002 (ip), vehicle: suspension in saline) 83 % of control; (dose: 3.12 mg/kg/injection, schedule: Q07DX002 (ip), vehicle: saline) 96 % of control; (dose: 6.25 mg/kg/injection, schedule: Q07DX002 (ip), vehicle: saline) 105 % of control; (dose: 6.25 mg/kg/injection, schedule: Q07DX002 (ip), vehicle: suspension in saline) 88 % of control; under setting [1], 90 % of control.

Take `COC1=CC(=O)C(OC)=C(OC)C1=O`: the T/C runs as follows: (dose: 6.25 mg/kg/injection, schedule: Q07DX002 (ip), vehicle: saline with Tween-80) 115 % of control and 92 % of control; (dose: 12.5 mg/kg/injection, schedule: Q07DX002 (ip), vehicle: saline with Tween-80) 160 % of control and 185 % of control; (dose: 50.0 mg/kg/injection, schedule: Q07DX002 (ip), vehicle: saline with Tween-80) 62 % of control and 65 % of control; under setting [6], 152 % of control; under setting [7], 189 % of control.

As to `CCOC(=O)C(N)CSC(=O)NC` (configuration not stated), the T/C was 83 % of control (dose: 125.0 mg/kg/injection, schedule: Q07DX002 (ip), vehicle: saline); 110 % of control (dose: 250.0 mg/kg/injection, schedule: Q07DX002 (ip), vehicle: saline); 81 % of control (dose: 500.0 mg/kg/injection, schedule: Q07DX002 (ip), vehicle: saline).

With `CN(C)c1ccc2c(SCC(=O)OCC(=O)[C@@]3(O)CC[C@H]4[C@@H]5CCC6=CC(=O)C=C[C@]6(C)[C@H]5C(=O)C[C@@]43C)c3ccc(N(C)C)cc3nc2c1`, the T/C by setting is: (dose: 50.0 mg/kg/injection, schedule: Q07DX002 (ip), vehicle: Klucel (hydroxypropylcellulose) (HPC)) 82 % of control; under setting [8], 69 % of control; under setting [9], 56 % of control; under setting [10], 77 % of control; under setting [11], 62 % of control.

For the compound `CCOC(=O)CNC(=O)Sc1ccc(C(C)(C)C)cc1`, the T/C is, setting by setting: (dose: 25.0 mg/kg/injection, schedule: Q07DX002 (ip), vehicle: Klucel (hydroxypropylcellulose) (HPC)) 117 % of control and 97 % of control; under setting [8], 111 % of control and 95 % of control; under setting [9], 78 % of control and 81 % of control; under setting [10], 78 % of control and 102 % of control; under setting [11], 54 % of control.

Regarding `CCCN1COC(OCC)C(C)(C)C1` (configuration not stated), the T/C reads like this: (dose: 25.0 mg/kg/injection, schedule: Q07DX002 (ip), vehicle: saline with Tween-80) 73 % of control; under setting [6], 68 % of control and 73 % of control; under setting [7], 77 % of control.
